Data reported in article PMC4457528, “Identification of Novel Small Molecule Inhibitors of Oncogenic RET Kinase” (PLoS ONE, 2015).
Like-named read-outs stand apart in the source and are kept apart here.

Legend:
Assay in all cases: KinomeScan kinase panel, single concentration 10 µM
Format in all cases: binding
KinomeScan kinase panel [1] = molecular target: T1, KinomeScan kinase panel (Homo sapiens, UniProt P29597)
T1 construct: purchased DiscoveRx (KinomeScan)

KinomeScan kinase panel [2] = molecular target: T2, KinomeScan kinase panel (Homo sapiens, UniProt Q02779); settings: MLK2, 10 µM; read-out: score (%)
T2 construct: purchased DiscoveRx (KinomeScan)
T2 sequence (Q02779 whole entry): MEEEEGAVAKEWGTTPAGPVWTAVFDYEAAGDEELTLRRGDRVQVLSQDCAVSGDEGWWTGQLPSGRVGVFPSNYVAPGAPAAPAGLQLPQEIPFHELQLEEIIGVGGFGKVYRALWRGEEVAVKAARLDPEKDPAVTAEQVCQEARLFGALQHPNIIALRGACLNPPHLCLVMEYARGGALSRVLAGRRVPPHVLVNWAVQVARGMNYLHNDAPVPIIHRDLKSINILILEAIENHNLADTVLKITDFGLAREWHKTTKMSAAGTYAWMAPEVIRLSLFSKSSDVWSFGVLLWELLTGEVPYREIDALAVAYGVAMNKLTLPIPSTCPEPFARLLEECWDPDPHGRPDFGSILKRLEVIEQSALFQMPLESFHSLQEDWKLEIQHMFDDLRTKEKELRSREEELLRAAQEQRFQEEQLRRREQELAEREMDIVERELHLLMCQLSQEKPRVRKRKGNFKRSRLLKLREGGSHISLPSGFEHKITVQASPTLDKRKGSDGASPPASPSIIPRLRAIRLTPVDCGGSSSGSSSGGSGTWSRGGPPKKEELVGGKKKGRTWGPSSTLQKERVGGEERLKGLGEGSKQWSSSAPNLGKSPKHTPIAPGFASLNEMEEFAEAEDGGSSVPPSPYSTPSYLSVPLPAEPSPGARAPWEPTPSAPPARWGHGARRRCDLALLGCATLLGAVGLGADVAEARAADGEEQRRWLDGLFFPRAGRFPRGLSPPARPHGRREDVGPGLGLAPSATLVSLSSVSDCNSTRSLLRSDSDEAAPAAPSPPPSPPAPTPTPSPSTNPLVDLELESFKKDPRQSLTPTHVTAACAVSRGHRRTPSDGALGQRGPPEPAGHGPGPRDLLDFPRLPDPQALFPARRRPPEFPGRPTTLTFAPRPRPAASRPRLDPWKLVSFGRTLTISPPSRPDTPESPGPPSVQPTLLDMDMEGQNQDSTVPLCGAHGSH

KinomeScan kinase panel [3] = molecular target: T3, KinomeScan kinase panel (Homo sapiens, UniProt Q8NI60); settings: ADCK3, 10 µM; read-out: score (%)
T3 construct: purchased DiscoveRx (KinomeScan)
T3 sequence (Q8NI60 163-647): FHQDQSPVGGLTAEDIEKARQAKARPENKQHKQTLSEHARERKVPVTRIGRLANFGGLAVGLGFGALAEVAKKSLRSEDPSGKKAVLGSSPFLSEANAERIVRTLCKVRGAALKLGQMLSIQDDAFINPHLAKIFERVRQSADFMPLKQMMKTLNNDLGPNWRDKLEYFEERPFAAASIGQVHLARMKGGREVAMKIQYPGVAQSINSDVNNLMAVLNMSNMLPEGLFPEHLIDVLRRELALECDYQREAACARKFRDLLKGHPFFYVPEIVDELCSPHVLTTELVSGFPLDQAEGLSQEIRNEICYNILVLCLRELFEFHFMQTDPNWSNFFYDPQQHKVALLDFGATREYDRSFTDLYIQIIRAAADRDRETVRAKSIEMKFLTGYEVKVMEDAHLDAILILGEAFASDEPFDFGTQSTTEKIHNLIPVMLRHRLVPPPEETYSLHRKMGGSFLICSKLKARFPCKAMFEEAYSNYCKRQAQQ

KinomeScan kinase panel [4] = molecular target: T4, KinomeScan kinase panel (Homo sapiens, UniProt P54760); settings: EPHB4, 10 µM; read-out: score (%)
T4 construct: purchased DiscoveRx (KinomeScan)
T4 sequence (P54760 16-987): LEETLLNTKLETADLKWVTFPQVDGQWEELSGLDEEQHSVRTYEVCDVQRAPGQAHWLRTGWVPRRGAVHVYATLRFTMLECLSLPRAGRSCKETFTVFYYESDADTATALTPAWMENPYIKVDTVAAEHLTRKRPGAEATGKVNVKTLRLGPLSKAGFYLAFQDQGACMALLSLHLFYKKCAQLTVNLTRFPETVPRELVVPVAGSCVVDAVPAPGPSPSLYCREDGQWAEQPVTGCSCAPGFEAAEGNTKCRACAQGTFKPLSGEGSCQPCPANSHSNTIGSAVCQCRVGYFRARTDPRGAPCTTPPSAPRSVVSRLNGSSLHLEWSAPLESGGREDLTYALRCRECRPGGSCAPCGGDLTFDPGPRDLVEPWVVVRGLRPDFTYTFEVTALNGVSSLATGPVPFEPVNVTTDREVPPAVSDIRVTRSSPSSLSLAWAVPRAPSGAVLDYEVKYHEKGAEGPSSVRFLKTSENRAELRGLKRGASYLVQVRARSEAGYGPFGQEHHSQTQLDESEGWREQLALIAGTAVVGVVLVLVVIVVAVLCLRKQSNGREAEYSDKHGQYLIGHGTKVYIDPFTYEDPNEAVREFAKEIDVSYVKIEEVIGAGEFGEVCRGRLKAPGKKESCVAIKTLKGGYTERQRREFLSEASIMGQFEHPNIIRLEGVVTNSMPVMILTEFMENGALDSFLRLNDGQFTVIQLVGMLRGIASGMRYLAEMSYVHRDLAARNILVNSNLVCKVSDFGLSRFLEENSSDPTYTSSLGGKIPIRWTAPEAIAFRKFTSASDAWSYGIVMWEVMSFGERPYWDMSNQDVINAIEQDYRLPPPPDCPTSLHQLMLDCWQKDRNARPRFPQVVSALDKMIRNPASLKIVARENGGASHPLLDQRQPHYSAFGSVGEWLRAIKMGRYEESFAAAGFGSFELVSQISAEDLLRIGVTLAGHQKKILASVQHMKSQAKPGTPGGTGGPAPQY

KinomeScan kinase panel [5] = molecular target: T5, KinomeScan kinase panel (Homo sapiens, UniProt P21127); settings: CDC2L1, 10 µM; read-out: score (%)
T5 construct: purchased DiscoveRx (KinomeScan)
T5 sequence (P21127 whole entry): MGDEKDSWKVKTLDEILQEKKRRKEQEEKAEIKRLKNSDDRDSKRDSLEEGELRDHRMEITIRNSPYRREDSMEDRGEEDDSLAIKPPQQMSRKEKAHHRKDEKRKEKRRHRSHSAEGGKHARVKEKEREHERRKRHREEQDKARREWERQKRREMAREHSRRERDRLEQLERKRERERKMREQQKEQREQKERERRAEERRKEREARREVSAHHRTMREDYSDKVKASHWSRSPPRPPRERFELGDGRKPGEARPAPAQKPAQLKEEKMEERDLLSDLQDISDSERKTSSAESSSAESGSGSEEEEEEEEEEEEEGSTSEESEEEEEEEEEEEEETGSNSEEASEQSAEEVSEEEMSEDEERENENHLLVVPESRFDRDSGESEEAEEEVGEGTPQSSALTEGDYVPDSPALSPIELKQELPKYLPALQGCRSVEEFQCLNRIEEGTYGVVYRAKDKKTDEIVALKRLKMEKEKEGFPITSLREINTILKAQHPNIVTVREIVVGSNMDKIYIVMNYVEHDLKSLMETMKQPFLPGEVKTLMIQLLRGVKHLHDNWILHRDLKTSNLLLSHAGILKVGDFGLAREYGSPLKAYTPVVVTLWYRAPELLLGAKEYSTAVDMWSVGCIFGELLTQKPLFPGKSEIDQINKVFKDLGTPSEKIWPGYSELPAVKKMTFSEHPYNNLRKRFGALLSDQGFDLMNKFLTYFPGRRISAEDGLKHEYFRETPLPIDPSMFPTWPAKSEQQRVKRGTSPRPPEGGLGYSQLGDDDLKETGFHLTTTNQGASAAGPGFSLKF

KinomeScan kinase panel [6] = molecular target: T6, KinomeScan kinase panel (Homo sapiens, UniProt Q96SB4); settings: read-out: score (%)
T6 construct: purchased DiscoveRx (KinomeScan)
T6 sequence (Q96SB4 whole entry): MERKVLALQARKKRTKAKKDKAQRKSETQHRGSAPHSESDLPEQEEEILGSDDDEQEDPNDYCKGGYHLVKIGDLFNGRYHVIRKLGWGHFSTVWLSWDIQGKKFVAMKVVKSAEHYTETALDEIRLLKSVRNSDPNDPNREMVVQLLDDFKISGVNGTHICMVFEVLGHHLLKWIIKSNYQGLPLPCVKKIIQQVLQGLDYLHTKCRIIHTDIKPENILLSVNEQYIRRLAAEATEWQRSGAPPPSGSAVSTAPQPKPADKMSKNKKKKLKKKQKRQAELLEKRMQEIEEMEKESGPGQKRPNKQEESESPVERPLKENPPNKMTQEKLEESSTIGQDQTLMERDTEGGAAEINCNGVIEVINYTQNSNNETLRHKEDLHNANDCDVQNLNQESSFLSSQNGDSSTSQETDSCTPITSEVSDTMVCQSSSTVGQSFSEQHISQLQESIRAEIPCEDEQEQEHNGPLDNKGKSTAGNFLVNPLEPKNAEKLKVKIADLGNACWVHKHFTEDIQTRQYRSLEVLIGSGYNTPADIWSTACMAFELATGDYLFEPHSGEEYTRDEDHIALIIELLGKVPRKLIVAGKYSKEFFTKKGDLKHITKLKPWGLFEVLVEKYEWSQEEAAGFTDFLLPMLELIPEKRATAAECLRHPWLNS

KinomeScan kinase panel [7] = molecular target: T7, KinomeScan kinase panel (Homo sapiens, UniProt Q16288); settings: 10 µM, read-out: score (%)
T7 construct: purchased DiscoveRx (KinomeScan)
T7 sequence (Q16288 32-839): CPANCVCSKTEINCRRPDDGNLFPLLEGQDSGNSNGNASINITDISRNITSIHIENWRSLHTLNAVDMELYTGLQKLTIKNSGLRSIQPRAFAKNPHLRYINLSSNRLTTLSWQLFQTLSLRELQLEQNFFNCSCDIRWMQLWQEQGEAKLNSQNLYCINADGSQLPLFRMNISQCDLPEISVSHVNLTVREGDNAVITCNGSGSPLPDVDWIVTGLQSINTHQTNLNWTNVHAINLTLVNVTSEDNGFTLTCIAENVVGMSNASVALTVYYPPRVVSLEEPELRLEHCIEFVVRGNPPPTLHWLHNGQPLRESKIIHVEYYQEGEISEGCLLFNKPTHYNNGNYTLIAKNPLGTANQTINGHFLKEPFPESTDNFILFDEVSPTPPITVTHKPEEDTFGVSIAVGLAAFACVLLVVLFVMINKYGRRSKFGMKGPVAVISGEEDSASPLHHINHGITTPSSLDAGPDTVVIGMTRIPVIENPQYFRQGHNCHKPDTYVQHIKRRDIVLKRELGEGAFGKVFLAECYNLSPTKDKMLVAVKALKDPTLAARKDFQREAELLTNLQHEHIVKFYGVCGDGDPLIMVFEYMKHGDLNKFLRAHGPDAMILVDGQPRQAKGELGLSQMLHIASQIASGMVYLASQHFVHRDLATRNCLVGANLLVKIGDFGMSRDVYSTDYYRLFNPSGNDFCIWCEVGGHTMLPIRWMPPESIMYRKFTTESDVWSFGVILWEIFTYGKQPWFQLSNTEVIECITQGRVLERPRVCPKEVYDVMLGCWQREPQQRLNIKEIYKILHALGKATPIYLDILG

KinomeScan kinase panel [8] = molecular target: T8, KinomeScan kinase panel (Homo sapiens, UniProt Q15303); settings: ERBB4, 10 µM; read-out: score (%)
T8 construct: purchased DiscoveRx (KinomeScan)

KinomeScan kinase panel [9] = molecular target: T9, KinomeScan kinase panel (Homo sapiens, UniProt Q5VT25); settings: MRCKA, 10 µM; read-out: score (%)
T9 construct: purchased DiscoveRx (KinomeScan)

KinomeScan kinase panel [10] = molecular target: T10, KinomeScan kinase panel (Homo sapiens, UniProt Q13470); settings: read-out: score (%)
T10 construct: purchased DiscoveRx (KinomeScan)
T10 sequence (Q13470 1-666): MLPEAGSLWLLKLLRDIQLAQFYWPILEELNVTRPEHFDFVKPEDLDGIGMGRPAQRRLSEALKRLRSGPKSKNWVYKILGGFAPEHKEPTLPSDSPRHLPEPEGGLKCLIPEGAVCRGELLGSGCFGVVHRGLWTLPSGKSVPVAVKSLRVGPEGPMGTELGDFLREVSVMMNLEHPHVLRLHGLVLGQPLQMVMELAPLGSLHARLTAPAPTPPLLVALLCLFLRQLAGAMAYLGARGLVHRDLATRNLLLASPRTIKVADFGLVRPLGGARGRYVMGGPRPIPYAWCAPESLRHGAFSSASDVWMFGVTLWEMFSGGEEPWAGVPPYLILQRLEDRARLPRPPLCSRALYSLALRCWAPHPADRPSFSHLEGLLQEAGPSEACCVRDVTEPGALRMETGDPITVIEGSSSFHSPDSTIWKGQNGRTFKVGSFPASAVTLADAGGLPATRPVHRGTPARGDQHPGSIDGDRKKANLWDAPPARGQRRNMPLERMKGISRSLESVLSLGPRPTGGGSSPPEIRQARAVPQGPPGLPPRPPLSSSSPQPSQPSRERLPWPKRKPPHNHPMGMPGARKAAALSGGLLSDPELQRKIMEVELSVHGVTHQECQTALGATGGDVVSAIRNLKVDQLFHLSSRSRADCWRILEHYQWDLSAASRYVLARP

[11] = kinase TYK2(JH1domain-catalytic), 10 µM

T1 sequence (P29597 whole entry): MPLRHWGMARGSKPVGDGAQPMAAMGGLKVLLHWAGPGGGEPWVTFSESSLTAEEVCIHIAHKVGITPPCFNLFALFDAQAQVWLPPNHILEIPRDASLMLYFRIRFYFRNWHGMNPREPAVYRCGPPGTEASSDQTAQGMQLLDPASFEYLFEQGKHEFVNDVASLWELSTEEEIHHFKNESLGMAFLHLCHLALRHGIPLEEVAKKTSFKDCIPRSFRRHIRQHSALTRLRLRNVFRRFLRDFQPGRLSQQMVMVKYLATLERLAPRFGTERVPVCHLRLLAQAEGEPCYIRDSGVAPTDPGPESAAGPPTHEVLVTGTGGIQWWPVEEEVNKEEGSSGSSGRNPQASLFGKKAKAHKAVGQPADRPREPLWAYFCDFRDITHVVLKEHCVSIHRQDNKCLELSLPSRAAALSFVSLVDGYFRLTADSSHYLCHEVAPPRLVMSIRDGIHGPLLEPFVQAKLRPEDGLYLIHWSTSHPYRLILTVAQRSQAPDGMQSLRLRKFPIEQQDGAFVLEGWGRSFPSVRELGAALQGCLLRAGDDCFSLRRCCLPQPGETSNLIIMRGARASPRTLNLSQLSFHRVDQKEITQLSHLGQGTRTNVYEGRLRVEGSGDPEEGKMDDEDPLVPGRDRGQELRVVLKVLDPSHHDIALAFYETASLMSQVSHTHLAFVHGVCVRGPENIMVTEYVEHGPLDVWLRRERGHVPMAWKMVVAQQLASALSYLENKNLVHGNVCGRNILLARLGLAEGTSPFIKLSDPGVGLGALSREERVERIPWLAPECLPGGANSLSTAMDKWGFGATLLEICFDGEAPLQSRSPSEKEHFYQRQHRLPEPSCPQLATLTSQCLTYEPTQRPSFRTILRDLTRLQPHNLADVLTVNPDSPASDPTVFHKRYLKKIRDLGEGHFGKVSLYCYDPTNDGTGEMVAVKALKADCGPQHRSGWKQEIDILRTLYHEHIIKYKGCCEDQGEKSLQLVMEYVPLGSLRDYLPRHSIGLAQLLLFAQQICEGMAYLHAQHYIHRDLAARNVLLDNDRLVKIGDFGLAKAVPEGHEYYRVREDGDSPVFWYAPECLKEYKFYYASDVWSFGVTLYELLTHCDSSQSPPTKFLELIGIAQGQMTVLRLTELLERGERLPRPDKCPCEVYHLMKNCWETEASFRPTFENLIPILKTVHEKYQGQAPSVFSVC

SMILES: CCN1CCN(Cc2ccc(NC(=O)c3ccc(C)c(NC(=O)c4cncc(-c5cccs5)c4)c3)cc2C(F)(F)F)CC1 [ALW-II-41-27]
- score (%) (KinomeScan kinase panel [1]): nb (Hits values higher than 30% were considered negative (no binding: nb))
- score (%) (KinomeScan kinase panel [1]; [11]): 9.8%
- remaining binding at 10 µM (KinomeScan kinase panel [2]): > 30%
- remaining binding at 10 µM (KinomeScan kinase panel [3]): > 30%
- remaining binding at 10 µM (KinomeScan kinase panel [4]): 0.55%
- remaining binding at 10 µM (KinomeScan kinase panel [5]): 1.5%
- remaining binding at 10 µM (KinomeScan kinase panel [6]; kinase SRPK1, 10 µM): > 30%
- remaining binding at 10 µM (KinomeScan kinase panel [7]; kinase TRKC): 0.85%
- remaining binding at 10 µM (KinomeScan kinase panel [8]): 1.3%
- remaining binding at 10 µM (KinomeScan kinase panel [9]): > 30%
- remaining binding at 10 µM (KinomeScan kinase panel [10]; kinase TNK1, 10 µM): 7.7%

SMILES: CCN1CCN(Cc2ccc(NC(=O)c3ccc(C)c(/C=C/c4cnc5[nH]ccc5c4Cl)c3)cc2C(F)(F)F)CC1 [HG-6-63-01, (E)-3-(2-(4-chloro-1H-pyrrolo[2,3-b]pyridin-5-yl)vinyl)-N-(4-((4-ethylpiperazin-1-yl)methyl)-3-(trifluoromethyl)phenyl)-4-methylbenzamide]
- score (%) (KinomeScan kinase panel [1]; kinase TYK2(Kin.Dom.1), 10 µM): nb (Hits values higher than 30% were considered negative (no binding: nb))
- score (%) (KinomeScan kinase panel [1]; kinase TYK2(Kin.Dom.2), 10 µM): 7%
- remaining binding at 10 µM (KinomeScan kinase panel [2]): 20%
- remaining binding at 10 µM (KinomeScan kinase panel [3]): > 30%
- remaining binding at 10 µM (KinomeScan kinase panel [4]): 5.7%
- remaining binding at 10 µM (KinomeScan kinase panel [5]): 13%
- remaining binding at 10 µM (KinomeScan kinase panel [6]; SRPK1, 10 µM): 0.25%
- remaining binding at 10 µM (KinomeScan kinase panel [7]; TRKC): 5.3%
- remaining binding at 10 µM (KinomeScan kinase panel [8]): 0.7%
- remaining binding at 10 µM (KinomeScan kinase panel [9]): 12%
- remaining binding at 10 µM (KinomeScan kinase panel [10]; TNK1, 10 µM): 0.8%

SMILES: CCN1CCN(Cc2ccc(NC(=O)c3ccc(C)c(C#Cc4cccnc4)c3)cc2C(F)(F)F)CC1 [XMD15-44]
- score (%) (KinomeScan kinase panel [1]; [11]): 4.2%
- score (%) (KinomeScan kinase panel [1]; kinase TYK2(JH2domain-pseudokinase), 10 µM): 99%
- remaining binding at 10 µM (KinomeScan kinase panel [2]): > 30%
- remaining binding at 10 µM (KinomeScan kinase panel [3]): > 30%
- remaining binding at 10 µM (KinomeScan kinase panel [4]): 1.6%
- remaining binding at 10 µM (KinomeScan kinase panel [5]): 2.5%
- remaining binding at 10 µM (KinomeScan kinase panel [6]; kinase SRPK1, 10 µM): 100%
- remaining binding at 10 µM (KinomeScan kinase panel [7]; kinase TRKC): 0.35%
- remaining binding at 10 µM (KinomeScan kinase panel [8]): 1.8%
- remaining binding at 10 µM (KinomeScan kinase panel [9]): > 30%
- remaining binding at 10 µM (KinomeScan kinase panel [10]; kinase TNK1, 10 µM): 0%
